Experimental data: patent US10814010B2, “FOXC2 inhibitor and methods of use thereof” (The Board of Regents of The University of Texas System, priority 2018, dated 2020)

Assays:
MCF-7 cells = assay: MTT cell viability assay, MCF-7; format: cell-based; settings: MCF-7, MTT, very low FOXC2 expression
Protocol: It was hypothesized that the specific binding of MC-1-F2 can lead to its specific cellular activity against cancer cells with high FOXC2 expression. This hypothesis was tested by evaluating MC-1-F2's cellular activity on cell lines with different FOXC2 expression levels: MCF-7, BT549, and MDA-MB-231. […] However, further studies are still underway. The specificity in cellular activity of MC-1-F2 was further evaluated in the form of a soft-agar colony forming assay to determine if MC-1-F2 was able to inhibit in vitro tumorigenicity of cancer cells in a FOXC2 expression-dependent manner. […] Further testing is underway in various breast cancer cell lines with different FOXC2 expression levels.
(§1) Cell viability was assessed by MTT (3-(4,5-Dimethylthiazol-2-yl)-2,5-Diphenyltetrazolium Bromide) assay. 1×10^4 cells were seeded on 48-well cell culture plate, and were incubated for at least 24 hours prior to drug treatment. The MTT reagent (Fisher Scientific) was added to the culture medium 3 hours prior to the end of compound incubation. The reaction took place in the 37° C. incubator with 5% CO2 for 3 hours. Cell culture medium was then removed from the wells. Cells with the insoluble purple formazan were lysed with DMSO for 10 mins at room temperature, 0.5 ml per well. The solution was aliquot to 96-well plate for absorbance reading at 570 nm using a plate reader.

DU145 cells = assay: Co-treatment MTT assay, DU145; settings: constant ratio
PC3 cells [1] = assay: Co-treatment MTT assay, PC3; settings: constant ratio
full-length FOXC2 = target: T1, full-length FOXC2 (Homo sapiens, UniProt Q99958); assay: ELISA-like binding assay, immobilized full-length FOXC2; settings: biotinylated compound, immobilized recombinant full-length FOXC2, Qdot655 fluorescence
T1 construct: human FOXC2 protein (amino acid residues 1-501) with a C-terminal 6 histidine tag; made in house; host or cells: E. coli BL21(DE3)
T1 sequence (Q99958 1-501): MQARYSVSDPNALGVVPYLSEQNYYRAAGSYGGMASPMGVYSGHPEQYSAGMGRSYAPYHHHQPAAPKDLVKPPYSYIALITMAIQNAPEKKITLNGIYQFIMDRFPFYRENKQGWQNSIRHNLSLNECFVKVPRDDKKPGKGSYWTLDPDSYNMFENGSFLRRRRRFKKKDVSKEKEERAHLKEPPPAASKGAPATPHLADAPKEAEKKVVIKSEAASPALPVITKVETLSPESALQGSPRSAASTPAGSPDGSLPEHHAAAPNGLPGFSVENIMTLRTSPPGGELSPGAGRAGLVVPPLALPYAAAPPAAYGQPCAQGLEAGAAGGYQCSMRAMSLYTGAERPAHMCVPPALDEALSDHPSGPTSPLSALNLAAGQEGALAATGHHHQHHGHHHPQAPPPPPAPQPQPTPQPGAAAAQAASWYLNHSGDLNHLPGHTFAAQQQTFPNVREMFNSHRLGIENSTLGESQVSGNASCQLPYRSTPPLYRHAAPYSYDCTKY
Protocol: The binding affinity of MC-1-F2 to full-length FOXC2 was determined using an ELISA-like binding assay. In this assay, varying concentrations of biotinylated MC-1-F2 or biotinylated MC-C (control; FIG. 12) were incubated in the wells with immobilized recombinant full-length FOXC2 or the DNA binding domain (DBD) of FOXC2 (FIG. 2A). After washing off unbound ligand, the wells were incubated with streptavidin-conjugated Qdot655, followed by fluorescence measurement of the wells using a plate reader. […] This is important for the specificity of MC-1-F2 to FOXC2 as several forkhead transcription factors share a very similar DNA-binding domain.
Clear bottom, black wall, 96 well plate (Corning) was coated with 1 μg/mL of full length FOXC2 or DNA binding domain (DBD) of FOXC2 protein in sensitizing buffer (0.621 g NaHCO3, 0.275 g Na2CO3 in 100 mL of water pH=9.5) overnight at 4° C. Wells were washed 3 times with 200 μL of wash buffer (lx PBS with 0.05% Tween-20). Wells were blocked with blocking buffer (1% BSA in 1×PBS with 0.05% Tween-20) for 1 hour at room temperature. 50 μL of serial dilutions of biotinylated compound in blocking buffer were added to each well and incubated for 1 hour at room temperature. Followed was the addition of […] of 20 nM of strepavidin-Qdot655 in blocking buffer for 1 hour at room temperature. […] Fluorescence was measured using a plate reader (Ex. 495, Em. 655).

PC3 cells [2] = assay: MTT cell viability assay, PC3; format: cell-based; settings: Homo sapiens, PC-3, 24 hour treatment
From the text: Inhibition of EMT in CRPC could lead to a new form of therapeutics to aid once androgen-independence is achieved. However, in order for MC-1-F2 to be considered an effective chemotherapeutic agent, its EC50 in prostate cancer needed to be determined as well as how it compares to other chemotherapeutic agents on the market and whether it is able to inhibit chemoresistance or lower the sensitivity of CRPC to commercially available drugs. In order to determine the EC50 of MC-1-F2, an MTT assay on cell viability was performed in both DU145 and PC3. […] These doses are higher than those encountered with breast cancer cell lines. This is most likely due to the lower FOXC2 expression levels founds in prostate cell lines when compared to the breast cell lines.
as §1, with “assay 5,000” for “assay. 1×10^4”, “a 96-well” for “48-well”, “plate” for “plate,”, “200 μL” for “0.5 ml”, “Absorbance” for “The solution”, “read” for “aliquot to 96-well plate for absorbance reading”

## N=C(N)NCCCCNc1nc(Nc2ccc(Oc3ccccc3)cc2)nc(N2CCN(c3nc(N)nc(Nc4ccc(N5CCOCC5)cc4)n3)CC2)n1 [MC-1-F2]
MCF-7 cells
  inhibition of cell viability: little inhibition of cell viability
DU145 cells
  combination index with docetaxel (CompuSyn): negative combination index
DU145 cells; 24 hours
  combination effect with docetaxel: synergistic effects
  combination effect with enzalutamide (CompuSyn): only additive effects
PC3 cells [1]
  combination index with docetaxel (CompuSyn): negative combination index
PC3 cells [1]; 24 hours
  combination effect with docetaxel: synergistic effects
  combination effect with enzalutamide (CompuSyn): only additive effects
full-length FOXC2
  Kd: 26 µM
PC3 cells [2]
  EC50: 46.6 µM
